Experimental data: patent EP0338042B1, “COMPOSITION AND METHOD FOR TREATING HEPATITIS VIRUS INFECTIONS USING 1-(2'-DEOXY-2'-FLUORO-BETA-D-ARABINOFURANOSYL)-5-ETHYLURACIL” (priority 1987, dated 1989)

Legend:
[1] = Toxicity in dogs
[2] = test system: P-815 CELLS; experiment: Inhibition of thymidine incorporation into DNA; type: cell-based, rodent; conditions: Mus musculus, P815, read-out: ED50 FOR […] INC[…] DNA, P-815 CELLS; read-out: ED50 FOR INHIBITING THYMIDINE INCORPORATION INTO DNA, P-815 CELLS
[3] = test system: L-1210 CELLS; experiment: Inhibition of thymidine incorporation into DNA; type: cell-based, rodent; conditions: Mus musculus, L1210, read-out: ED50 FOR […] INC[…] DNA, L-1210 CELLS; read-out: ED50 FOR INHIBITING THYMIDINE INCORPORATION INTO DNA, L-1210 CELLS
[4] = test system: HSV-2(G); conditions: plaque reduction in Vero cells, cited from earlier work
[5] = test system: Vero cells; conditions: cytotoxic effect measured in rapidly dividing cells; read-out: ID₅₀; cited from earlier work
[6] = test system: Vero cells; experiment: Inhibition of cell growth; type: cell-based, African green monkey; conditions: Chlorocebus sabaeus, read-out: ED50 FOR INHIBITING CELL GROWTH IN VERO CELLS
[7] = test system: HSV-1(F); experiment: Plaque reduction assay in Vero cells; type: cell-based; conditions: monkey
Excerpt: (§1) With FMAU as a lead compound, the syntheses of other 5-alkyl substituted 2′-fluoro-ara-uracils were undertaken (8, 9), including 1-(2′-deoxy-2′-fluoro-beta-D-arabinofuranosyl)-5-ethyluracil [FEAU].

[8] = test system: HSV-2(G); experiment: Plaque reduction assay in Vero cells; type: cell-based; conditions: monkey
Excerpt: as §1

[9] = test system: L-1210; experiment: Incorporation of 2-14C-labeled nucleoside into DNA of cells; type: cell-based, rodent; conditions: FEAU also not detectable at 100 μM
Excerpt: There was no detectable incorporation of FEAU radioactivity into the DNA of either L-1210 or Vero cell lines, but substantial amounts of FMAU radioactivity were incorporated into the DNA of both cell lines. When HSV-1 infected Vero cells were exposed to ¹⁴C-labeled FEAU and FMAU, both nucleosides incorporated into the DNA of these virus-infected cells.

[10] = test system: HL-60 CELLS; experiment: Inhibition of cell growth; type: cell-based; conditions: Homo sapiens, HL-60, read-out: ED50 FOR INHIBITING CELL GROWTH IN HL-60 CELLS

With `CCc1cn([C@@H]2O[C@H](CO)[C@@H](O)[C@@H]2F)c(=O)[nH]c1=O` [FEAU, 1-(2'-deoxy-2'-fluoro-beta-D-arabino-furanosyl)-5-ethyl-uracil] the toxicity ([1]; 50 mg/kg/day x 10, preliminary studies) was “moderate toxicity”, the lethal dose ([1]; FMAU i.v. x 5, FEAU x 10 (preliminary)) was 100 mg/kg/day and the EC50 [2] was 700 µM. The EC50 [3] was 630 µM, the EC50 ([4]; read-out: HSV-2(G) ED₅₀) was 0.24 µM and the EC90 ([4]; read-out: HSV-2(G) ED₉₀) was 0.91 µM. For the same compound, the CC50 [5] was 200 µM, the EC50 [6] was over 200 µM and the “THER. INDEX ID₅₀/ED₉₀ HSV-1” value [7] was 769. The “THER. INDEX ID₅₀/ED₉₀ HSV-2” value [8] was 220, the “INCORPORATION INTO DNA AT 10μM, L-1210” value [9] was “NOT DETECTABLE*” and the EC50 [10] was 2060 µM.
